Values of other authors as cited in patent publication US20090036541A1, “Applicator and chemical combination for better topical anesthesia” (priority 2007, published 2009).

Conditions: compared with lidocaine

CCCCNc1ccc(C(=O)OCCN(C)C)cc1 [tetracaine]
potency relative to lidocaine: ten-fold
